Activity calls are given as the source filed them. The calls are words filed in the database; no cut-off is given here.
Legend:
[1] = Cytotoxicity against doxorubicin-resistant human K562R cells incubated for 72 hrs by CellTiter 96 aqueous one solution reagent based assay; assay type: functional, cell-based; details: k-562r
[2] = Cytotoxicity against human K562 cells incubated for 72 hrs by CellTiter 96 aqueous one solution reagent based assay; assay type: functional, cell-based
[3] = Cytotoxicity against human MRC5 cells incubated for 72 hrs by CellTiter 96 aqueous one solution reagent based assay; assay type: toxicity, cell-based; details: mrc5, 72 h
K562R [4] = details: Homo sapiens
Description: Inhibition of P-gp in doxorubicin-resistant human K562R cells assessed as rhodamine efflux by measuring mean fluorescence intensity at 10 uM incubated for 1 hr by flow cytometry (Rvb = 0.47 No_unit)

[5] = Resistance index, ratio of IC50 for cytotoxicity against doxorubicin-resistant human K562R cells to IC50 for cytotoxicity against human K562 cells; assay type: functional
K562R [6] = assay: Inhibition of P-gp in doxorubicin-resistant human K562R cells assessed as rhodamine influx by measuring mean fluorescence intensity at 10 uM incubated for 20 mins by flow cytometry; assay type: cell-based
K562R [7] = assay: Inhibition of P-gp in doxorubicin-resistant human K562R cells assessed as rhodamine influx by measuring ratio of rhodamine mean fluorescence intensity in presence and absence of compound at 10 uM incubated for 20 mins by flow cytometry; assay type: cell-based
K562R [8] = assay: Inhibition of P-gp in doxorubicin-resistant human K562R cells assessed as rhodamine influx by measuring ratio of rhodamine mean fluorescence intensity in presence and absence of compound at 5 uM incubated for 20 mins by flow cytometry; assay type: cell-based
[9] = Cytotoxicity against doxorubicin-resistant human K562R cells assessed as reduction in cell viability at 1 uM incubated for 72 hrs by CellTiter 96 aqueous one solution reagent based assay; assay type: functional, K562
K562 = assay: Potentiation of 0.1 to 1 nM vinorelbine-induced cytotoxicity by measuring reduction in cell viability against human K562 cells at 2 uM incubated for 72 hrs by CellTiter 96 aqueous one solution reagent based assay; assay type: functional
K562R [10] = assay: Inhibition of P-gp-mediated multidrug resistance in doxorubicin-resistant human K562R cells assessed as potentiation of 5 nM vinorelbine-induced cytotoxicity by measuring cell viability at 1 uM incubated for 72 hrs by CellTiter 96 aqueous one solution reagent based assay
Homo sapiens [11] = species on record: Homo sapiens; assay: Inhibition of recombinant human P-gp ATPase activity at 40 uM by Pgp-Glo assay
[12] = Cytotoxicity against doxorubicin-resistant human K562R cells assessed as reduction in cell viability at 2 uM incubated for 72 hrs by CellTiter 96 aqueous one solution reagent based assay; assay type: functional, K562
K562R [13] = assay: Inhibition of P-gp-mediated multidrug resistance in doxorubicin-resistant human K562R cells assessed as potentiation of 1 uM doxorubicin-induced cytotoxicity by measuring cell death level at 2 uM incubated for 72 hrs by CellTiter 96 aqueous one solution reagent based assay; parameters: scale not given: the % may be the effect or the level left
K562R [14] = assay: Inhibition of P-gp-mediated multidrug resistance in doxorubicin-resistant human K562R cells assessed as potentiation of 50 nM vinorelbine-induced cytotoxicity at 2 uM incubated for 72 hrs by CellTiter 96 aqueous one solution reagent based assay; assay type: cell-based
Homo sapiens [15] = species on record: Homo sapiens; assay: Stimulation of recombinant human P-gp ATPase activity at 10 uM by Pgp-Glo assay

Structure (SMILES)	IC50 [1] [µmol]	IC50 [2] [µmol]	Activity [3]	Flu intensity (K562R [4])	Ratio IC50 [5]	Flu intensity (K562R [6])	Ratio (K562R [7])	inhibition (K562R [8])	Activity [9] [%]	Activity (K562) [%]	Activity (K562R [10]) [%]	inhibition (Homo sapiens [11])	Activity [12] [%]	Activity (K562R [13]) [%]	inhibition (K562R [14])	Activity (Homo sapiens [15])
CCC1=C[C@@H]2CN(C1)Cc1c([nH]c3ccccc13)[C@@](C(=O)OC)(c1cc3c(cc1OC)N(C)[C@H]1[C@@](O)(C(=O)OC)[C@H](OC(C)=O)[C@]4(CC)C=CCN5CC[C@]31[C@@H]54)C2 [VINORELBINE]	0.41	0.003	Toxic	0.42	137	1.6	0.9	–	–	–	–	–	–	–	–	–
CCC1=C[C@H]2CN(C1)C1=C(Cc3c([nH]c4ccccc34)[C@@](C(=O)OC)(c3cc4c(cc3OC)N(C)[C@H]3[C@@](O)(C(=O)OC)[C@H](OC(C)=O)[C@]5(CC)C=CCN6CC[C@]43[C@@H]65)C2)C(=O)N(C(C)C)C1=O	6	2.6	Toxic	2.9	2.3	7.6	4.2	Active	–	–	–	–	–	–	–	–
CCC1=C[C@H]2CN(C1)C1=C(Cc3c([nH]c4ccccc34)[C@@](C(=O)OC)(c3cc4c(cc3OC)N(C)[C@H]3[C@@](O)(C(=O)OC)[C@H](OC(C)=O)[C@]5(CC)C=CCN6CC[C@]43[C@@H]65)C2)C(=O)N(CC(C)C)C1=O	2.5	0.45	Toxic	7.72	5.5	36	20	Active	–	–	–	–	–	–	–	–
C#Cc1ccc2[nH]c3c(c2c1)C/C(C(=O)OC)=C(/C(=O)NC(C)C)N1CC(CC)=C[C@@H](C1)C[C@]3(C(=O)OC)c1cc2c(cc1OC)N(C)[C@H]1[C@@](O)(C(=O)OC)[C@H](OC(C)=O)[C@]3(CC)C=CCN4CC[C@]21[C@@H]43	2.5	0.6	–	0.51	4	1.8	1	–	–	–	–	–	–	–	–	–
CCC1=C[C@H]2CN(C1)/C(C(=O)NC(C)C)=C(/C(=O)OC)Cc1c([nH]c3ccccc13)[C@@](C(=O)OC)(c1cc3c(cc1OC)N(C)[C@H]1[C@@](O)(C(=O)OC)[C@H](OC(C)=O)[C@]4(CC)C=CCN5CC[C@]31[C@@H]54)C2	2	0.04	–	1.39	50	2.9	1.6	–	–	–	–	–	–	–	–	–
CCOC(=O)[C@@H]1Cc2c([nH]c3ccccc23)[C@@](C(=O)OC)(c2cc3c(cc2OC)N(C)[C@H]2[C@@](O)(C(=O)OC)[C@H](OC(C)=O)[C@]4(CC)C=CCN5CC[C@]32[C@@H]54)C[C@H]2C=C(CC)CN(C2)C1	3	0.08	–	0.77	37	5.3	2.9	–	–	–	–	–	–	–	–	–
CCC1=C[C@H]2CN(C1)/C(C(=O)NCc1ccccc1)=C(/C(=O)OC)Cc1c([nH]c3ccccc13)[C@@](C(=O)OC)(c1cc3c(cc1OC)N(C)[C@H]1[C@@](O)(C(=O)OC)[C@H](OC(C)=O)[C@]4(CC)C=CCN5CC[C@]31[C@@H]54)C2	6	0.04	–	0.55	150	2.2	1.2	–	–	–	–	–	–	–	–	–
CCC1=C[C@H]2CN(C1)C[C@H](C(=O)OCc1ccccc1)Cc1c([nH]c3ccccc13)[C@@](C(=O)OC)(c1cc3c(cc1OC)N(C)[C@H]1[C@@](O)(C(=O)OC)[C@H](OC(C)=O)[C@]4(CC)C=CCN5CC[C@]31[C@@H]54)C2	> 10	0.4	–	0.48	>25	2.2	1.2	–	–	–	–	–	–	–	–	–
C#Cc1ccc2[nH]c3c(c2c1)C/C(C(=O)OC)=C\N1CC(CC)=C[C@@H](C1)C[C@]3(C(=O)OC)c1cc2c(cc1OC)N(C)[C@H]1[C@@](O)(C(=O)OC)[C@H](OC(C)=O)[C@]3(CC)C=CCN4CC[C@]21[C@@H]43	3	0.6	–	0.45	5	1.6	0.9	–	–	–	–	–	–	–	–	–
CCOC(=O)/C1=C/N2CC(CC)=C[C@@H](C2)C[C@](C(=O)OC)(c2cc3c(cc2OC)N(C)[C@H]2[C@@](O)(C(=O)OC)[C@H](OC(C)=O)[C@]4(CC)C=CCN5CC[C@]32[C@@H]54)c2[nH]c3ccccc3c2C1	> 10	0.1	–	0.64	>100	7.2	4	–	–	–	–	–	–	–	–	–
CCC1=C[C@H]2CN(C1)C1=C(Cc3c([nH]c4ccccc34)[C@@](C(=O)OC)(c3cc4c(cc3OC)N(C)[C@H]3[C@@](O)(C(=O)OC)[C@H](OC(C)=O)[C@]5(CC)C=CCN6CC[C@]43[C@@H]65)C2)C(=O)N(Cc2ccccc2)C1=O	5	0.9	Toxic	1.89	5.5	11.3	6.3	Active	20	20	40	Active	20	90	Active	Active
CCC1=C[C@H]2CN(/C=C(/C(=O)OCc3ccccc3)Cc3c([nH]c4ccccc34)[C@@](C(=O)OC)(c3cc4c(cc3OC)N(C)[C@H]3[C@@](O)(C(=O)OC)[C@H](OC(C)=O)[C@]5(CC)C=CCN6CC[C@]43[C@@H]65)C2)C1	> 10	0.1	–	0.48	>100	2.3	1.3	–	–	–	–	–	–	–	–	–
CC[C@]1(O)C[C@@H]2CN(CCc3c([nH]c4ccccc34)[C@@](C(=O)OC)(c3cc4c(cc3OC)N(C)[C@H]3[C@@](O)(C(=O)OC)[C@H](OC(C)=O)[C@]5(CC)C=CCN6CC[C@]43[C@@H]65)C2)C1 [VINBLASTINE]	0.48	0.004	Toxic	0.42	120	1.2	0.7	–	–	–	–	–	–	–	–	–
COc1cccc2c1C(=O)c1c(O)c3c(c(O)c1C2=O)C[C@@](O)(C(=O)CO)C[C@@H]3O[C@H]1C[C@H](N)[C@H](O)[C@H](C)O1 [DOXORUBICIN]	35	0.047	–	–	745	–	–	–	–	–	–	–	–	–	–	–
CCC1=C[C@H]2CN(/C=C(/C(=O)OC)Cc3c([nH]c4ccc(Br)cc34)[C@@](C(=O)OC)(c3cc4c(cc3OC)N(C)[C@H]3[C@@](O)(C(=O)OC)[C@H](OC(C)=O)[C@]5(CC)C=CCN6CC[C@]43[C@@H]65)C2)C1	3	0.5	–	0.47	6	2.1	1.2	–	–	–	–	–	–	–	–	–
